IC50 data for one compound are collected here from BindingDB's records for PubMed 29751237 (University of Kwazulu-Natal, 2018).

Molecules are shown by their SMILES.

In this assay the target is Maltase-glucoamylase (Homo sapiens, UniProt O43451). Kind of assay: Inhibition of alpha-glucosidase (unknown origin) using p-nitrophenyl-alpha-D-glucopyranoside as substrate incubated for 30 mins by spectrophotometric analysis.
Sequence of Maltase-glucoamylase (O43451 whole entry): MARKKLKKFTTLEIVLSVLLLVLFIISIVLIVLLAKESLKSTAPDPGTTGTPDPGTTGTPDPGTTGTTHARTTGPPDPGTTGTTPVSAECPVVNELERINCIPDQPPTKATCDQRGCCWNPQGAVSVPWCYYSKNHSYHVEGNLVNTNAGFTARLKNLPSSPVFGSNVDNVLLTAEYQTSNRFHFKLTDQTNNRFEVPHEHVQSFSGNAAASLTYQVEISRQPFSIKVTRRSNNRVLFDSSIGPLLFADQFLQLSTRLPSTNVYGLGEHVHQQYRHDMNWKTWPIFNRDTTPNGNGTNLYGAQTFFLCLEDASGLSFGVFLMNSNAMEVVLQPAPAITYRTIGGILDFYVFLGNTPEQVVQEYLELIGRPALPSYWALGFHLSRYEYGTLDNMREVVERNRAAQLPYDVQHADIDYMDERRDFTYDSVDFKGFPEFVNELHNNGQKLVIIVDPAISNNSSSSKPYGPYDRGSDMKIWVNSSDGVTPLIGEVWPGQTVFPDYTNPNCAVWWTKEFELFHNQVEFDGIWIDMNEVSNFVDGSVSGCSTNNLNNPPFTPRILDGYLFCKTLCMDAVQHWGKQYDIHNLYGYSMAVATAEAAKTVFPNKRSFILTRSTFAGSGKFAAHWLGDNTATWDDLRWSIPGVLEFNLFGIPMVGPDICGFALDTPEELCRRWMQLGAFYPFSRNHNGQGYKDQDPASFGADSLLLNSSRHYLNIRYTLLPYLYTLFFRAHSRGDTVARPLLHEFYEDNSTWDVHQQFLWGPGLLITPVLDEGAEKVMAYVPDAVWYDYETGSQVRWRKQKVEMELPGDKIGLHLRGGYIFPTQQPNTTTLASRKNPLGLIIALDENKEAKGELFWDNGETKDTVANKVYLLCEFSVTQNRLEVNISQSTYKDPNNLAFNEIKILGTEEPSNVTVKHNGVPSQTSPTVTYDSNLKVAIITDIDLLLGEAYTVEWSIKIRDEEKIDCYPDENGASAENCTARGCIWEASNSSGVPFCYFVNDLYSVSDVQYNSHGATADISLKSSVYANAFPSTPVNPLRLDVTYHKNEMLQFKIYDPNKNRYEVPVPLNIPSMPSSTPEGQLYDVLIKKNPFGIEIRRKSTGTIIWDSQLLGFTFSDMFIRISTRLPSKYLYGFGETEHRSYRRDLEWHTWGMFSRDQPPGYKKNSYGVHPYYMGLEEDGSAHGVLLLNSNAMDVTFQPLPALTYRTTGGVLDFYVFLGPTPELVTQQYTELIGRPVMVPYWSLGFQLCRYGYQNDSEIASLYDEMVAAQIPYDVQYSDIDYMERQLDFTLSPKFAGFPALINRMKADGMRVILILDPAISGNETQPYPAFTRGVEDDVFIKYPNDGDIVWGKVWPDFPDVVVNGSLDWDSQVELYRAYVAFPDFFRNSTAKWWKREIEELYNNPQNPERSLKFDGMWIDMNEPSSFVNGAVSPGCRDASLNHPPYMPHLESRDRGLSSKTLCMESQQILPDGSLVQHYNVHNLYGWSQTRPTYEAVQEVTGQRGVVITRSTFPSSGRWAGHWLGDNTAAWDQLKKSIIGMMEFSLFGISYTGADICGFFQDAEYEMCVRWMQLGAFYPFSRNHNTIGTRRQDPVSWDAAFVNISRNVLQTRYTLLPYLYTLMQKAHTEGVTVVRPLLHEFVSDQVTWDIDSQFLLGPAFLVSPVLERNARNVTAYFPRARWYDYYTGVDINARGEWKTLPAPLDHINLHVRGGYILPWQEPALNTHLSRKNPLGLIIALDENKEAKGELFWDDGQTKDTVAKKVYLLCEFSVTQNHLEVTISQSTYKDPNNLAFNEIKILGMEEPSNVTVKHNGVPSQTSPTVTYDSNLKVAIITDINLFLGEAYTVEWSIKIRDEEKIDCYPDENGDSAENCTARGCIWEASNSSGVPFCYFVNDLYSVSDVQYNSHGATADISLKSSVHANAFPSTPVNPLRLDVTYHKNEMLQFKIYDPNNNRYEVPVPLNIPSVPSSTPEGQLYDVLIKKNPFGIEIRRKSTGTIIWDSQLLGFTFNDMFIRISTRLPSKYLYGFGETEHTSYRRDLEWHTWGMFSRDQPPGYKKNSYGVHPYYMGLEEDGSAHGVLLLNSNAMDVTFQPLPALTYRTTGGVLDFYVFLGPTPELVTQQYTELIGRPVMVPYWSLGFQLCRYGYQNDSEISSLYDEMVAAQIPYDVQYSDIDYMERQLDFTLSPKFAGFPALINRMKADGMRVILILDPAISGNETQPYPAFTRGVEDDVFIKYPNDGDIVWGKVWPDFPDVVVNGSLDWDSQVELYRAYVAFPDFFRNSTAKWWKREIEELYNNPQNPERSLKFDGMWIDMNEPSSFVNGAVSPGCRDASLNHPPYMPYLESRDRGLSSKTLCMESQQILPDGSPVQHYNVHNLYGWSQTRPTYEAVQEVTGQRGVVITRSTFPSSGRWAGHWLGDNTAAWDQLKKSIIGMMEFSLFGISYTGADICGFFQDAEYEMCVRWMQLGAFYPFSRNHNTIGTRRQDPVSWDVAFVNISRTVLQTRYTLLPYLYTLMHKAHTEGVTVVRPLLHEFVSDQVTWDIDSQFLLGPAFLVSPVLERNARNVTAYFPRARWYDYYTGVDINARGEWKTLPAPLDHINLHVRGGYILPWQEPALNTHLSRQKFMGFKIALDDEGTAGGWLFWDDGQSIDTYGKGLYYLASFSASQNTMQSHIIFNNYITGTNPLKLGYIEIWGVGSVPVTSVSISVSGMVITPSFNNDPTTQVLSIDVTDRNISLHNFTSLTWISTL

The term IC50 denotes the concentration that inhibits the measured activity by half. Low readings indicate greater potency in that assay, high ones weaker potency in that assay. Compound `CC(C)=CCC/C(C)=C/Cc1c(O)cc(O)c(C(=O)/C=C/c2ccc(O)cc2)c1O` displayed an IC50 of 1.08 µM.
